Test system: CRABP-2 expression of fibroblasts
Assay: CRABP-2 protein expression in fibroblasts (Western blot, densitometric scanning)
Format: cell-based, Human
Settings: for CRABP-2 levels: 4 h anise pre-treatment, 48 h incubation, +/− SD of triplicates; for As % of control: control as 100%
Method: Dried […] seeds (Pimpinella anisum) was purchased from local markets and powdered in a dry grinder. The alcoholic extract of anise seed was prepared by stirring 1 gram of the dry anise seed powder in 10 ml of ethanol from the list of solvents given below for 4 to 24 hrs at room temperature. The extracts were clarified by filtration and centrifugation, to obtain a 10% extract of anise seed in the particular solvent. Human adult fibroblasts obtained from sun-protected inner arm of 25-30 year […] volunteer were used in this. Cells were grown in 1:1 DMEM/Hams F12 media containing 10% FBS, maintained at 37C in a 5% CO2 atmosphere under normal atmospheric oxygen tension. Third passage adult fibroblasts were grown in DMEM media with 10% FBS in 12-well plates at a seeding density of 40,000 cells/ml/well. The cells at 80% confluence were rinsed in serum free and phenol red free (PRF) DMEM media twice. Pre-treatment with anise seed extract for 4 hours was conducted and then dosed with retinoids and was incubated for 48 hours. After the incubation, the wells were washed twice with 1×PBS and the cell monolayer was harvested in 100 μl cell lysis buffer (contains 1×PBS, 1% TritonX, 0.5% sodium deoxycholate, 0.1% SDS containing protease inhibitor (10 mg/ml PMSF in isopropanol, 10 μl/ml). The suspension was spun at 14000 rpm for 10 minutes, the supernatant collected and an aliquot of this supernatant was used for protein quantification. Protein concentration was determined using Pierce protein kit. The remainder of 100 μl supernatant (cell lysate) was denatured in a mixture of 40 μl sample buffer (NOVEX) and 0.5% Beta mercaptoethanol (BME) and by boiling the sample for 5 minutes. Equal amount of protein was then loaded onto 16% Tris-glycine gels for protein analysis by SDS page and Western Immuno-blotting for CRABP-2 protein expression. To measure the levels of CRABP-2 in the fibroblasts prepared as described above, the cell supernatant was re-suspended in 4× sample buffer and 0.5% BME, boiled for 5 minutes and used for western blotting. Equal amounts of protein were loaded onto 16% Tris-glycine gels for CRABP-2 protein analysis by SDS page and Western Immuno-blotting. The gels were transferred to nitrocellulose blots and Western Blotting was carried out using monoclonal antibodies to CRABP-2 according to standard procedures. The CRABP-2 protein band was visualized in the Western Blots using the chemiluminescence system obtained from Santa Cruz Biotechnology (SantaCruz, Calif.). The bands in the film were quantitated by densitometric scanning, the data from triplicate samples were calculated as % of control and expressed in the following tables as % increase over control (with control as 100%) +/−SD of triplicates.

[1] = Example 1: 100 nM retinoids and 0.1 μl of a 10% anise seed extract
[2] = Example 2: 100 nM retinoids and 1.0 μl of a 10% anise seed extract
[3] = Example 3: 500 nM retinoids and 0.1 μl of a 10% anise seed extract
[4] = Example 4: 500 nM retinoids and 1.0 μl of a 10% anise seed extract

Row | Compound | CRABP-2 levels [1] | As % of control [1] | CRABP-2 levels [2] | As % of control [2] | CRABP-2 levels [3] | As % of control [3] | CRABP-2 levels [4] | As % of control [4]
1 | CC1=C(/C=C/C(C)=C/C=C/C(C)=C/CO)C(C)(C)CCC1 [Retinol] | 1.36 +/− 0.17 | 317 +/− 39 % of control | 1.36 +/− 0.17 | 317 +/− 39 % of control | 0.66 +/− 0.19 | 154 +/− 44 % of control | 0.66 +/− 0.19 | 154 +/− 44 % of control
2 | CCCCCCCCCCCCCCCC(=O)OC/C=C(C)/C=C/C=C(C)/C=C/C1=C(C)CCCC1(C)C [Retinyl Palmitate] | 1.12 +/− 0.15 | 262 +/− 37 % of control | 1.12 +/− 0.15 | 262 +/− 37 % of control | 0.83 +/− 0.5 | 193 % of control | 0.83 +/− 0.5 | 193 % of control
3 | CC(=O)OC/C=C(C)/C=C/C=C(C)/C=C/C1=C(C)CCCC1(C)C [Retinyl acetate] | 2.38 +/− 0.81 | 553 % of control | 2.38 +/− 0.81 | 553 % of control | 1.02 +/− 0.56 | 237 % of control | 1.02 +/− 0.56 | 237 % of control
4 | CCCCC/C=C\C/C=C\CCCCCCCC(=O)OC/C=C(C)/C=C/C=C(C)/C=C/C1=C(C)CCCC1(C)C [Retinyl linoleate] | 1.23 +/− 0.28 | 286 +/− 65 % of control | 1.23 +/− 0.28 | 286 +/− 65 % of control | 0.99 +/− 0.13 | 231 +/− 30 % of control | 0.99 +/− 0.13 | 231 +/− 30 % of control

Reference: patent publication US6395286B1, “Cosmetic compositions containing anise extract and retinoids” (Unilever Home & Personal Care USA, division of Conopco, Inc., priority 1999, dated 2002)
